# According to US9617244B2, “Antibacterial quinoline derivatives” (JANSSEN PHARMACEUTICA NV, priority 2012, dated 2017):
# Tested on: Mycobacterium smegmatis (ATCC607)
# Assay: In-vitro anti-bacterial activity against strain M. Smegmatis ATCC607
# Format: cell-based
# Settings: 90% inhibitory concentration for bacterial growth, 48 hours, Alamar Blue fluorescence
# Outline: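 IC90 (μg/ml) derived from Alamar Blue fluorescence (530/590 nm) after 48 h growth at 37 °C under 5% CO2. About 250 CFU per well in Mueller-Hinton broth faced five-fold serial compound dilutions in BSA-containing wells.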
row,IC90 MSM 607 [µg/mL],Structure (SMILES)
1,3.48,COc1nc2ccc(S(C)(=O)=O)cc2cc1C(c1ccc(Cl)cc1)C1(O)CCNC(Cc2ccccc2)C1 (stereo not shown) [Compound 38]
2,1.64,COc1nc2ccc(SC)cc2cc1C(c1ccc(Cl)cc1)C1(O)CCNC(Cc2ccccc2)C1 (stereo not shown) [Compound 91]
3,1.64,COc1nc2ccc(SC)cc2cc1C(c1ccc(Cl)cc1)C1(O)CCNC(Cc2ccccc2)C1 (stereo not shown) [Compound 92]
4,2.01,COc1nc2ccc(SC)cc2cc1C(c1ccc(Cl)cc1)C1(O)CCNC(Cc2ccccc2)C1 (stereo not shown) [Compound 93]
5,1.76,COc1nc2ccc(Cl)cc2cc1C(c1ccc(Cl)cc1)C1(O)CCNC(Cc2ccccc2)C1 (stereo not shown) [Compound 94]
6,1.12,COc1nc2ccc(Br)cc2cc1C(c1ccc(SC)cc1)C1(O)CCNC(Cc2ccccc2)C1 (stereo not shown) [Compound 98]
7,1.42,COc1nc2ccc(Br)cc2cc1C(c1ccc(SC)cc1)C1(O)CCNC(Cc2ccccc2)C1 (stereo not shown) [Compound 99]
8,1.59,COc1nc2ccc(Br)cc2cc1C(c1ccc(SC)cc1)C1(O)CCNC(Cc2ccccc2)C1 (stereo not shown) [Compound 101]
9,1.72,COc1nc2ccc(Br)cc2cc1C(c1ccc(C#N)cc1)C1(O)CCNC(Cc2ccccc2)C1 (stereo not shown) [Compound 116]

# More lines, now with the values behind:
row,Structure (SMILES),IC90 MSM 607 [µg/mL]
1,COc1nc2ccc(-c3cccnc3)cc2cc1C(c1cccc(Cl)c1)C1(O)CCNC(Cc2ccccc2)C1 (stereo not shown) [Compound 15],1.38
2,CSc1nc2ccc(Br)cc2cc1C(c1ccc(Cl)cc1)C1(O)CCNC(Cc2ccccc2)C1 (stereo not shown) [Compound 87],2.85
3,CSc1nc2ccc(Br)cc2cc1C(c1ccc(Cl)cc1)C1(O)CCNC(Cc2ccccc2)C1 (stereo not shown) [Compound 88],1.66
4,COc1nc2ccc(Br)cc2cc1C(c1ccc(S(C)(=O)=O)cc1)C1(O)CCNC(Cc2ccccc2)C1 (stereo not shown) [Compound 102],3.76
5,COc1nc2ccc(Br)cc2cc1C(c1ccc(Cl)cc1)C1(O)CCNC(Cc2ccc(F)c(F)c2)C1 (stereo not shown) [Compound 112],0.93
6,COc1nc2ccc(Br)cc2cc1C(c1ccc(Cl)cc1)C1(O)CCNC(Cc2ccc(F)c(F)c2)C1 (stereo not shown) [Compound 113],1.01
7,COc1nc2ccc(Br)cc2cc1C(c1ccc(Cl)cc1)C1(O)CCNCC1Cc1ccccc1 (stereo not shown) [Compound 114],0.98
8,O=c1[nH]c2ccc(Br)cc2cc1[C@@H](c1ccc(Cl)cc1)[C@]1(O)CCNC(Cc2ccccc2)C1 (stereo partly shown) [Compound 122],3.62

# Same assay, conditions: Mycolicibacterium smegmatis, ATCC607, 48 h, 90% inhibitory concentration for bacterial growth, Alamar Blue fluorescence, read-out: IC90 MSM 607
row,IC90 [µg/mL],Structure (SMILES)
1,3.18,COc1nc2ccc(SC)cc2cc1C(c1ccc(Cl)cc1)C1(O)CCNC(Cc2ccccc2)C1 (stereo not shown) [Compound 90]
2,2.08,COc1nc2ccc(Br)cc2cc1C(c1ccc(C#N)cc1)C1(O)CCNC(Cc2ccccc2)C1 (stereo not shown) [Compound 115]

# The remaining lines, values behind:
row,Structure (SMILES),IC90 [µg/mL]
1,COc1nc2ccc(Br)cc2cc1C(c1ccc(Cl)cc1)C1(O)CCNC(Cc2ccc(F)c(F)c2)C1 (stereo not shown) [Compound 39],0.93
2,COc1nc2ccc(Br)cc2cc1C(c1ccc(Cl)cc1)C1(O)CCNCC1Cc1ccccc1 (stereo not shown) [Compound 117],2.77
3,O=c1[nH]c2ccc(Br)cc2cc1[C@@H](c1ccc(Cl)cc1)[C@]1(O)CCNC(Cc2ccccc2)C1 (stereo partly shown) [Compound 121],3.62

# Tested on: Streptococcus pneumoniae (ATCC6305)
# Assay: In-vitro anti-bacterial activity, microtitre plate assay, IC90 determination (non-mycobacterial strains)
# Format: cell-based
# Settings: 90% inhibitory concentration for bacterial growth, 24 hours, resazurin fluorescence
# Outline: (§1)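 Growth inhibition measured fluorometrically with resazurin (530/590 nm) after overnight 37 °C incubation under normal atmosphere. Bacteria added at roughly 100 TCID50 per well in Mueller-Hinton broth to five-fold compound dilution series; IC90 reported in μg/ml.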
row,IC90 SPN 6305 [µg/mL],Structure (SMILES)
1,4.63,COc1nc2ccc(SC)cc2cc1C(c1ccc(Cl)cc1)C1(O)CCNC(Cc2ccccc2)C1 (stereo not shown) [Compound 91]
2,6.54,COc1nc2ccc(SC)cc2cc1C(c1ccc(Cl)cc1)C1(O)CCNC(Cc2ccccc2)C1 (stereo not shown) [Compound 92]
3,5.66,COc1nc2ccc(SC)cc2cc1C(c1ccc(Cl)cc1)C1(O)CCNC(Cc2ccccc2)C1 (stereo not shown) [Compound 93]
4,6.32,COc1nc2ccc(Br)cc2cc1C(c1ccc(SC)cc1)C1(O)CCNC(Cc2ccccc2)C1 (stereo not shown) [Compound 99]
5,6.32,COc1nc2ccc(Br)cc2cc1C(c1ccc(SC)cc1)C1(O)CCNC(Cc2ccccc2)C1 (stereo not shown) [Compound 101]
6,6.83,COc1nc2ccc(Br)cc2cc1C(c1ccc(C#N)cc1)C1(O)CCNC(Cc2ccccc2)C1 (stereo not shown) [Compound 116]

# The remaining lines, values behind:
row,Structure (SMILES),IC90 SPN 6305 [µg/mL]
1,CSc1nc2ccc(Br)cc2cc1C(c1ccc(Cl)cc1)C1(O)CCNC(Cc2ccccc2)C1 (stereo not shown) [Compound 88],8.32
2,COc1nc2ccc(Br)cc2cc1C(c1ccc(Cl)cc1)C1(O)CCNC(Cc2ccc(F)c(F)c2)C1 (stereo not shown) [Compound 112],6.60
3,COc1nc2ccc(Br)cc2cc1C(c1ccc(Cl)cc1)C1(O)CCNC(Cc2ccc(F)c(F)c2)C1 (stereo not shown) [Compound 113],4.04
4,O=c1[nH]c2ccc(Br)cc2cc1[C@@H](c1ccc(Cl)cc1)[C@]1(O)CCNC(Cc2ccccc2)C1 (stereo partly shown) [Compound 122],3.62

# Same assay, conditions: Streptococcus pneumoniae, ATCC6305, 24 h, 90% inhibitory concentration for bacterial growth, resazurin fluorescence, read-out: IC90 SPN 6305
row,IC90 [µg/mL],Structure (SMILES)
1,6.94,COc1nc2ccc(S(C)(=O)=O)cc2cc1C(c1ccc(Cl)cc1)C1(O)CCNC(Cc2ccccc2)C1 (stereo not shown) [Compound 38]
2,8,COc1nc2ccc(SC)cc2cc1C(c1ccc(Cl)cc1)C1(O)CCNC(Cc2ccccc2)C1 (stereo not shown) [Compound 90]
3,4.95,COc1nc2ccc(Cl)cc2cc1C(c1ccc(Cl)cc1)C1(O)CCNC(Cc2ccccc2)C1 (stereo not shown) [Compound 94]
4,6.32,COc1nc2ccc(Br)cc2cc1C(c1ccc(SC)cc1)C1(O)CCNC(Cc2ccccc2)C1 (stereo not shown) [Compound 98]
5,4.16,COc1nc2ccc(Br)cc2cc1C(c1ccc(C#N)cc1)C1(O)CCNC(Cc2ccccc2)C1 (stereo not shown) [Compound 115]

# Further lines, the compound ahead of its results:
row,Structure (SMILES),IC90 [µg/mL]
1,COc1nc2ccc(-c3cccnc3)cc2cc1C(c1cccc(Cl)c1)C1(O)CCNC(Cc2ccccc2)C1 (stereo not shown) [Compound 15],6.93
2,COc1nc2ccc(Br)cc2cc1C(c1ccc(Cl)cc1)C1(O)CCNC(Cc2ccc(F)c(F)c2)C1 (stereo not shown) [Compound 39],5.24
3,CSc1nc2ccc(Br)cc2cc1C(c1ccc(Cl)cc1)C1(O)CCNC(Cc2ccccc2)C1 (stereo not shown) [Compound 87],7.15
4,COc1nc2ccc(Br)cc2cc1C(c1ccc(S(C)(=O)=O)cc1)C1(O)CCNC(Cc2ccccc2)C1 (stereo not shown) [Compound 102],7.5
5,COc1nc2ccc(Br)cc2cc1C(c1ccc(Cl)cc1)C1(O)CCNCC1Cc1ccccc1 (stereo not shown) [Compound 114],4.38
6,COc1nc2ccc(Br)cc2cc1C(c1ccc(Cl)cc1)C1(O)CCNCC1Cc1ccccc1 (stereo not shown) [Compound 117],5.52
7,O=c1[nH]c2ccc(Br)cc2cc1[C@@H](c1ccc(Cl)cc1)[C@]1(O)CCNC(Cc2ccccc2)C1 (stereo partly shown) [Compound 121],3.62

# Tested on: Staphylococcus aureus (ATCC29213)
# Assay: as above
# Format: cell-based
# Settings: 90% inhibitory concentration for bacterial growth, 24 hours, resazurin fluorescence
# Outline: as §1
row,IC90 STA B29213 [µg/mL],Structure (SMILES)
1,3.48,COc1nc2ccc(S(C)(=O)=O)cc2cc1C(c1ccc(Cl)cc1)C1(O)CCNC(Cc2ccccc2)C1 (stereo not shown) [Compound 38]
2,1.64,COc1nc2ccc(SC)cc2cc1C(c1ccc(Cl)cc1)C1(O)CCNC(Cc2ccccc2)C1 (stereo not shown) [Compound 91]
3,1.64,COc1nc2ccc(SC)cc2cc1C(c1ccc(Cl)cc1)C1(O)CCNC(Cc2ccccc2)C1 (stereo not shown) [Compound 92]
4,3.18,COc1nc2ccc(SC)cc2cc1C(c1ccc(Cl)cc1)C1(O)CCNC(Cc2ccccc2)C1 (stereo not shown) [Compound 93]
5,3.13,COc1nc2ccc(Cl)cc2cc1C(c1ccc(Cl)cc1)C1(O)CCNC(Cc2ccccc2)C1 (stereo not shown) [Compound 94]
6,1.78,COc1nc2ccc(Br)cc2cc1C(c1ccc(SC)cc1)C1(O)CCNC(Cc2ccccc2)C1 (stereo not shown) [Compound 98]
7,1.78,COc1nc2ccc(Br)cc2cc1C(c1ccc(SC)cc1)C1(O)CCNC(Cc2ccccc2)C1 (stereo not shown) [Compound 99]
8,3.56,COc1nc2ccc(Br)cc2cc1C(c1ccc(SC)cc1)C1(O)CCNC(Cc2ccccc2)C1 (stereo not shown) [Compound 101]
9,3.42,COc1nc2ccc(Br)cc2cc1C(c1ccc(C#N)cc1)C1(O)CCNC(Cc2ccccc2)C1 (stereo not shown) [Compound 116]

# More lines, now with the values behind:
row,Structure (SMILES),IC90 STA B29213 [µg/mL]
1,COc1nc2ccc(-c3cccnc3)cc2cc1C(c1cccc(Cl)c1)C1(O)CCNC(Cc2ccccc2)C1 (stereo not shown) [Compound 15],1.74
2,CSc1nc2ccc(Br)cc2cc1C(c1ccc(Cl)cc1)C1(O)CCNC(Cc2ccccc2)C1 (stereo not shown) [Compound 87],3.58
3,CSc1nc2ccc(Br)cc2cc1C(c1ccc(Cl)cc1)C1(O)CCNC(Cc2ccccc2)C1 (stereo not shown) [Compound 88],2.63
4,COc1nc2ccc(Br)cc2cc1C(c1ccc(S(C)(=O)=O)cc1)C1(O)CCNC(Cc2ccccc2)C1 (stereo not shown) [Compound 102],3.76
5,COc1nc2ccc(Br)cc2cc1C(c1ccc(Cl)cc1)C1(O)CCNC(Cc2ccc(F)c(F)c2)C1 (stereo not shown) [Compound 112],1.66
6,COc1nc2ccc(Br)cc2cc1C(c1ccc(Cl)cc1)C1(O)CCNC(Cc2ccc(F)c(F)c2)C1 (stereo not shown) [Compound 113],2.02
7,O=c1[nH]c2ccc(Br)cc2cc1[C@@H](c1ccc(Cl)cc1)[C@]1(O)CCNC(Cc2ccccc2)C1 (stereo partly shown) [Compound 122],2.88

# Same assay, conditions: Staphylococcus aureus, ATCC29213, 24 h, 90% inhibitory concentration for bacterial growth, resazurin fluorescence, read-out: IC90 STA B29213
row,IC90 [µg/mL],Structure (SMILES)
1,3.18,COc1nc2ccc(SC)cc2cc1C(c1ccc(Cl)cc1)C1(O)CCNC(Cc2ccccc2)C1 (stereo not shown) [Compound 90]
2,3.3,COc1nc2ccc(Br)cc2cc1C(c1ccc(C#N)cc1)C1(O)CCNC(Cc2ccccc2)C1 (stereo not shown) [Compound 115]

# The remaining lines, values behind:
row,Structure (SMILES),IC90 [µg/mL]
1,COc1nc2ccc(Br)cc2cc1C(c1ccc(Cl)cc1)C1(O)CCNC(Cc2ccc(F)c(F)c2)C1 (stereo not shown) [Compound 39],1.17
2,COc1nc2ccc(Br)cc2cc1C(c1ccc(Cl)cc1)C1(O)CCNCC1Cc1ccccc1 (stereo not shown) [Compound 114],1.75
3,COc1nc2ccc(Br)cc2cc1C(c1ccc(Cl)cc1)C1(O)CCNCC1Cc1ccccc1 (stereo not shown) [Compound 117],3.48
4,O=c1[nH]c2ccc(Br)cc2cc1[C@@H](c1ccc(Cl)cc1)[C@]1(O)CCNC(Cc2ccccc2)C1 (stereo partly shown) [Compound 121],3.62

# Tested on: not given
# Assay: not given
# Settings: not given
row,melting point [°C],Structure (SMILES)
1,130,COc1nc2ccc(S(C)(=O)=O)cc2cc1C(c1ccc(Cl)cc1)C1(O)CCNC(Cc2ccccc2)C1 (stereo not shown) [Compound 38]
2,214,COc1nc2ccc(SC)cc2cc1C(c1ccc(Cl)cc1)C1(O)CCNC(Cc2ccccc2)C1 (stereo not shown) [Compound 91]
3,114,COc1nc2ccc(SC)cc2cc1C(c1ccc(Cl)cc1)C1(O)CCNC(Cc2ccccc2)C1 (stereo not shown) [Compound 92]
4,214,COc1nc2ccc(Br)cc2cc1C(c1ccc(SC)cc1)C1(O)CCNC(Cc2ccccc2)C1 (stereo not shown) [Compound 99]
5,153,COc1nc2ccc(Br)cc2cc1C(c1ccc(C#N)cc1)C1(O)CCNC(Cc2ccccc2)C1 (stereo not shown) [Compound 116]

# More lines, now with the values behind:
row,Structure (SMILES),melting point [°C]
1,COc1nc2ccc(-c3cccnc3)cc2cc1C(c1cccc(Cl)c1)C1(O)CCNC(Cc2ccccc2)C1 (stereo not shown) [Compound 15],220
2,COc1nc2ccc(Br)cc2cc1C(c1ccc(Cl)cc1)C1(O)CCNC(Cc2ccc(F)c(F)c2)C1 (stereo not shown) [Compound 39],106
3,CSc1nc2ccc(Br)cc2cc1C(c1ccc(Cl)cc1)C1(O)CCNC(Cc2ccccc2)C1 (stereo not shown) [Compound 87],227
4,COc1nc2ccc(Br)cc2cc1C(c1ccc(S(C)(=O)=O)cc1)C1(O)CCNC(Cc2ccccc2)C1 (stereo not shown) [Compound 102],145
5,COc1nc2ccc(Br)cc2cc1C(c1ccc(Cl)cc1)C1(O)CCNC(Cc2ccc(F)c(F)c2)C1 (stereo not shown) [Compound 112],124
